Molecular target: T1, ABCG2 (Homo sapiens, UniProt Q9UNQ0)
T1 sequence (Q9UNQ0 1-655): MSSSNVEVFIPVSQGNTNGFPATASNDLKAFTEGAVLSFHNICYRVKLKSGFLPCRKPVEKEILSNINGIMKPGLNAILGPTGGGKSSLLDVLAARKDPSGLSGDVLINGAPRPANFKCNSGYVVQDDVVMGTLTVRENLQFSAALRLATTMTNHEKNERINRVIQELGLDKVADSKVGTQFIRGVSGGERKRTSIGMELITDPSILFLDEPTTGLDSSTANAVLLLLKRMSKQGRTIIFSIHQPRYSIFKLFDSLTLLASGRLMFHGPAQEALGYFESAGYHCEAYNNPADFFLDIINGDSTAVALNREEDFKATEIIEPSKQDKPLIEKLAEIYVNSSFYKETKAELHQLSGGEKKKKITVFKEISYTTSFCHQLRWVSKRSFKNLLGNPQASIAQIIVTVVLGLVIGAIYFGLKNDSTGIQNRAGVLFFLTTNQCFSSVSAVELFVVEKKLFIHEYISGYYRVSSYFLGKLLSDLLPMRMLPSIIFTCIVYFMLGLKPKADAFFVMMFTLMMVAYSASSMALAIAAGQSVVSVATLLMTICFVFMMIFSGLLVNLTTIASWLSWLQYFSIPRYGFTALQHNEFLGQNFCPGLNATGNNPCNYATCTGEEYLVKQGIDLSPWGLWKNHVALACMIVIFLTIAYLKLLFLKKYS
Experiment: Hoechst […] accumulation assay in ABCG2-transfected MDCK II BCRP cells
Assay type: cell-based

## O=C1NC(=O)c2c1c1c3ccccc3[nH]c1c1[nH]c3ccccc3c21 [compound 8, arcyriaflavin A]
  IC50: 9 µM

Source: article PMC7497240 (Chembiochem, 2020)
